Test results: patent publication US6653318B1, “5-(E)-Bromovinyl uracil analogues and related pyrimidine nucleosides as anti-viral agents and methods of use” (Yale University, priority 1999, dated 2003)
pIC50: −log10 of the molar value.

Tested on: VZV
Assay: Virus growth inhibition assay, VZV viral DNA slot-blot
Type: cell-based, Varicella-Zoster virus
Settings: Human alphaherpesvirus 3, 72 h, read-out: IC50 VZV
Protocol: Virus growth inhibition assay. Confluent virus permissive cells in 12-well plates are inoculated with the virus at 30˜40 pfu/well. After one-hour adsorption at 37° C., the inoculum is replaced with the medium containing 10% of dialyzed FBS and tested compounds at various dosages. Each dosage is duplicated. The infected cells are harvested at 72-hour postinfection. For HSV virus, the plaque reduction assay is performed to measure the virus growth. […] For VZV and EBV, the infected cells are lysed by “freeze-thaw” and the lysate is treated with protease K and RNase. […] The viral DNA is detected by hybridization with ^32P-labeled DNA fragment of viral specific gene. Autoradiographic results are quantitated by Personal Densitometer SI (Molecular Dynamics., Sunnyvale, Calif.). The same membrane is stripped and rehybridized with human β-actin gene fragment. The viral DNA amount is subsequently normalized by viral DNA/human actin DNA.

SMILES	pIC50
O=c1[nH]c(=O)n([C@H]2C[C@H](O)[C@@H](CO)O2)cc1/C=C/Br [D-BVDU, (E)-5-(2-bromovinyl)-2′-deoxyuridine, reference compound]	7.30

Same assay, conditions: Human alphaherpesvirus 3; concentration that inhibits 50% of virus growth; viral DNA, 72-hour postinfection; read-out: IC50 VZV

SMILES	pIC50
O=c1[nH]c(=O)n([C@@H]2CO[C@H](CO)O2)cc1/C=C/Br [L-β-BVOddU, (2S,5S)-E-5-(2-Bromovinyl)-1-[2-(hydroxymethyl)-1,3-dioxolan-5-yl]uracil]	7.15
O=c1[nH]c(=O)n([C@H]2O[C@@H](CO)[C@H](O)[C@@H]2F)cc1/C=C/Br [L-BV2′F-dU, E-5-(2-Bromovinyl)-1-(2-deoxy-2-fluoro-β-L-ribofuranosyl) uracil]	< 4.52
O=c1[nH]c(=O)n([C@H]2CO[C@@H](CO)O2)cc1/C=C/Br [D-β-BVOddU, (2R,5R)-E-5-(2-Bromovinyl)-1-[2-(hydroxymethyl)-1,3-dioxolan-5-yl]uracil]	4.59
O=c1[nH]c(=O)n([C@@H]2O[C@H](CO)[C@@H](O)[C@@H]2O)cc1/C=C/Br [D-ara-BVU, 1-β-D-arabinofuranosyl-(E)-5-(2-bromovinyl)uracil, reference compound]	9.15

The next lines start with the values.

pIC50	SMILES
4.90	O=c1[nH]c(=O)n([C@@H]2CS[C@H](CO)O2)cc1/C=C/Br [L-β-BVSddU, (2R,5S)-E-5-(2-Bromovinyl)-1-(2-hydroxymethyl-1,3-oxathiolan-5-yl)uracil]
7.46	O=c1[nH]c(=O)n([C@@H]2CO[C@H](CO)O2)cc1/C=C/I [L-β-IVOddU, (2S,5S)-E-5-(2-Iodovinyl)-1-[2-(hydroxymethyl)-1,3-dioxolan-5-yl]uracil]
< 4.52	O=c1[nH]c(=O)n([C@H]2CO[C@H](CO)O2)cc1/C=C/I [L-α-IVOddU, (2S,5R)-E-5-(2-Iodovinyl)-1-[2-(hydroxymethyl)-1,3-dioxolan-5-yl]uracil]
6.82	O=c1[nH]c(=O)n([C@@H]2CO[C@H](CO)O2)cc1/C=C/Cl [L-β-ClVOdd, (2S,5S)-E-5-(2-Chlorovinyl)-1-[2-(hydroxymethyl)-1,3-dioxolan-5-yl]uracil]

Tested on: HSV-1
Assay: Virus growth inhibition assay, HSV plaque reduction
Type: cell-based, Herpes Simplex virus
Settings: Human alphaherpesvirus 1, concentration that inhibits 50% of virus growth
Protocol: (§1) Virus growth inhibition assay. Confluent virus permissive cells in 12-well plates are inoculated with the virus at 30˜40 pfu/well. After one-hour adsorption at 37° C., the inoculum is replaced with the medium containing 10% of dialyzed FBS and tested compounds at various dosages. Each dosage is duplicated. The infected cells are harvested at 72-hour postinfection. For HSV virus, the plaque reduction assay is performed to measure the virus growth. ID50 is designated as the dosage that inhibits 50% of plaque formation compared with untreated controls. For VZV and EBV, the infected cells are lysed by “freeze-thaw” and the lysate is treated with protease K and RNase. The DNA is then subjected to slot-blot as described previous (Yao, et al., Biochem. Pharmacol. 51: 941-947). The viral DNA is detected by hybridization with ^32P-labeled DNA fragment of viral specific gene. Autoradiographic results are quantitated by Personal Densitometer SI (Molecular Dynamics., Sunnyvale, Calif.). The same membrane is stripped and rehybridized with human β-actin gene fragment. The viral DNA amount is subsequently normalized by viral DNA/human actin DNA. The concentration of the tested compounds, which inhibit 50% of viral DNA synthesis compared to untreated control, is defined as IC50.

SMILES	pIC50
O=c1[nH]c(=O)n([C@@H]2CO[C@H](CO)O2)cc1/C=C/Br [L-β-BVOddU, (2S,5S)-E-5-(2-Bromovinyl)-1-[2-(hydroxymethyl)-1,3-dioxolan-5-yl]uracil]	4.44
O=c1[nH]c(=O)n([C@H]2O[C@@H](CO)[C@H](O)[C@@H]2F)cc1/C=C/Br [L-BV2′F-dU, E-5-(2-Bromovinyl)-1-(2-deoxy-2-fluoro-β-L-ribofuranosyl) uracil]	< 4.30
O=c1[nH]c(=O)n([C@H]2CO[C@@H](CO)O2)cc1/C=C/Br [D-β-BVOddU, (2R,5R)-E-5-(2-Bromovinyl)-1-[2-(hydroxymethyl)-1,3-dioxolan-5-yl]uracil]	< 4.30

The remaining lines, values ahead:

pIC50	SMILES
4.48	O=c1[nH]c(=O)n([C@@H]2CO[C@H](CO)O2)cc1/C=C/I [L-β-IVOddU, (2S,5S)-E-5-(2-Iodovinyl)-1-[2-(hydroxymethyl)-1,3-dioxolan-5-yl]uracil]
< 4.30	O=c1[nH]c(=O)n([C@H]2CO[C@H](CO)O2)cc1/C=C/I [L-α-IVOddU, (2S,5R)-E-5-(2-Iodovinyl)-1-[2-(hydroxymethyl)-1,3-dioxolan-5-yl]uracil]
4.74	O=c1[nH]c(=O)n([C@@H]2CO[C@H](CO)O2)cc1/C=C/Cl [L-β-ClVOdd, (2S,5S)-E-5-(2-Chlorovinyl)-1-[2-(hydroxymethyl)-1,3-dioxolan-5-yl]uracil]

Tested on: EBV
Assay: Anti-EBV activity, EBV DNA slot blot in H1 cells
Type: cell-based, Epstein Barr virus
Settings: human gammaherpesvirus 4, 120 h, concentration that inhibits 50% of virus growth, 5 days
Protocol: as §1
A high yield of EBV producing cell line H1 derived from human P3HR1 cells was used in this study. Cells were cultured in RPMI medium supplemented with 10% dialyzed fetal bovine serum and 100 μg/ml Kanamycin and were grown at 37° C. in a humidified incubator containing 5% CO2.
H1 cells were maintained in logarithmic phase of growth for two days prior to the initiation of treatment. The H1 cells were seeded in 24 well plates at the density of 2×10^5 cells per well in 2 ml of fresh medium with or without drug treatment and were incubated at 37° C. for 5 days. Following the period of drug treatment the cells were pelleted and used to determine the inhibitory effect of drug on EBV DNA by slot blot assay.
A total of 4×10^5 H1 cells treated with the various nucleoside analogs (as set forth below) were lysed in 400 μl of 10 mM Tris-HCl (pH 7.5) solution by freezing and thawing 3 times. The cell lysate was treated with RNAase A (at a final concentration of 50 μg/ml) at 37° C. for 30 minutes and then with proteinase K (at a final concentration of 100 μg/ml) at 55° C. for 2 hr. The samples were denatured by adjusting the final concentration to 0.4N NaOH/10 mM EDTA at pH 8.2. After heating for 10 minutes in a water bath at 100° C., the samples were spotted onto positively charged nylon membrane using a manifold. […] The amount of EBV DNA in treated H1 cells was determined according to the ratio of EBV DNA to Alu DNA in comparison with non-treatment control H1 cells. […]

SMILES	pIC50
O=c1[nH]c(=O)n([C@@H]2CS[C@H](CO)O2)cc1/C=C/Br [L-β-BVSddU, (2R,5S)-E-5-(2-Bromovinyl)-1-(2-hydroxymethyl-1,3-oxathiolan-5-yl)uracil]	< 4.30
O=c1[nH]c(=O)n([C@@H]2CO[C@H](CO)O2)cc1/C=C/I [L-β-IVOddU, (2S,5S)-E-5-(2-Iodovinyl)-1-[2-(hydroxymethyl)-1,3-dioxolan-5-yl]uracil]	5.39

Tested on: FU catabolite amino acids
Assay: FU metabolites by 19F-NMR in mice after pretreatment with BV analog
Type: in vivo
Settings: BDF1 mice, 20 mg/kg p.o. two hours before FU 200 mg/kg i.p., one hour after FU
Protocol: Two hours after injection, 5-Flurouracil (FU) at a concentration of 200 mg/kg was administered i.p. […] Consequently, the coadministration of any one or more of the β-L nucleoside compounds along with FU or an FU produrg in the treatment of cancer to enhance the effectiveness of these agents is meritorious and unexpected.

SMILES	inhibition of FU catabolite amino acids [%]	effect on FU catabolite amino acids / break-down of FU (in words)
O=c1[nH]c(=O)n([C@@H]2CO[C@H](CO)O2)cc1/C=C/Br [L-β-BVOddU, (2S,5S)-E-5-(2-Bromovinyl)-1-[2-(hydroxymethyl)-1,3-dioxolan-5-yl]uracil]	~100	–
O=c1[nH]c(=O)n([C@@H]2O[C@H](CO)[C@@H](O)[C@@H]2O)cc1/C=C/Br [D-ara-BVU, 1-β-D-arabinofuranosyl-(E)-5-(2-bromovinyl)uracil, reference compound]	–	decreased from catabolite amino acids

Tested on: not given
Assay: not given
Settings: not given

SMILES	melting point
O=c1[nH]c(=O)n([C@@H]2CO[C@H](CO)O2)cc1/C=C/I [L-β-IVOddU, (2S,5S)-E-5-(2-Iodovinyl)-1-[2-(hydroxymethyl)-1,3-dioxolan-5-yl]uracil]	162 °C (dec.)
O=c1[nH]c(=O)n([C@H]2CO[C@H](CO)O2)cc1/C=C/I [L-α-IVOddU, (2S,5R)-E-5-(2-Iodovinyl)-1-[2-(hydroxymethyl)-1,3-dioxolan-5-yl]uracil]	60 °C (dec.)

Tested on: not listed separately
Assay: Cell cytotoxicity assay, cell growth
Type: cell-based
Settings: human; CEM cells, three-day growth, 50% inhibition of cell growth
Protocol: Cell Cytotoxicity Assay. CEM cells are grown at 2.5×10^4 Cells per ml in RPM1 media supplemented with 20% dialyzed FBS. When cells double, they are seeded in 24-well plates at 1 ml/well. The tested drugs are added at various diluted dosage. After three-day growth at 37° C., 5% CO2, the cells are harvested and counted by using Coulter counter. Cytotoxicity IC50 is designated as the dosage that inhibits 50% of the cell growth compared to the untreated controls.

SMILES	IC50 at 3 days [µM]
O=c1[nH]c(=O)n([C@@H]2CS[C@H](CO)O2)cc1/C=C/Br [L-β-BVSddU, (2R,5S)-E-5-(2-Bromovinyl)-1-(2-hydroxymethyl-1,3-oxathiolan-5-yl)uracil]	> 100
O=c1[nH]c(=O)n([C@@H]2CO[C@H](CO)O2)cc1/C=C/Br [L-β-BVOddU, (2S,5S)-E-5-(2-Bromovinyl)-1-[2-(hydroxymethyl)-1,3-dioxolan-5-yl]uracil]	> 100
O=c1[nH]c(=O)n([C@H]2O[C@@H](CO)[C@H](O)[C@@H]2F)cc1/C=C/Br [L-BV2′F-dU, E-5-(2-Bromovinyl)-1-(2-deoxy-2-fluoro-β-L-ribofuranosyl) uracil]	> 100
O=c1[nH]c(=O)n([C@H]2C[C@H](O)[C@@H](CO)O2)cc1/C=C/Br [D-BVDU, (E)-5-(2-bromovinyl)-2′-deoxyuridine, reference compound]	> 100
O=c1[nH]c(=O)n([C@H]2CO[C@@H](CO)O2)cc1/C=C/Br [D-β-BVOddU, (2R,5R)-E-5-(2-Bromovinyl)-1-[2-(hydroxymethyl)-1,3-dioxolan-5-yl]uracil]	> 100
O=c1[nH]c(=O)n([C@@H]2CO[C@H](CO)O2)cc1/C=C/I [L-β-IVOddU, (2S,5S)-E-5-(2-Iodovinyl)-1-[2-(hydroxymethyl)-1,3-dioxolan-5-yl]uracil]	> 100
O=c1[nH]c(=O)n([C@H]2CO[C@H](CO)O2)cc1/C=C/I [L-α-IVOddU, (2S,5R)-E-5-(2-Iodovinyl)-1-[2-(hydroxymethyl)-1,3-dioxolan-5-yl]uracil]	> 100
O=c1[nH]c(=O)n([C@@H]2CO[C@H](CO)O2)cc1/C=C/Cl [L-β-ClVOdd, (2S,5S)-E-5-(2-Chlorovinyl)-1-[2-(hydroxymethyl)-1,3-dioxolan-5-yl]uracil]	> 100
O=c1[nH]c(=O)n([C@@H]2O[C@H](CO)[C@@H](O)[C@@H]2O)cc1/C=C/Br [D-ara-BVU, 1-β-D-arabinofuranosyl-(E)-5-(2-bromovinyl)uracil, reference compound]	> 100
